Results from ChEMBL document CHEMBL5260839 (J Med Chem, 2019).
Activity calls are given as the source filed them. The rule behind the calls is not given here.

What was measured:
RS4-11 [1] = assay: Antitumor activity against human RS4-11 cells xenografted in mouse assessed as tumor regression at 50 mg/kg, administered every other day for 3 weeks; format: functional, organism-based
ML-2 [2] = assay: cells; details: Homo sapiens, ML-2, 96 h
[3] = target: T1, Protein cereblon/E3 ubiquitin-protein ligase Mdm2 (Homo sapiens) (UniProt Q00987+Q96SW2); assay: PROTAC activity at CRBN/MDM2 in human RS4-11 cells harbouring wildtype p53 assessed as upregulation of TP53 mRNA expression at 0.03 to 0.1 uM incubated for 6 hrs by qRT-PCR analysis; format: cell-based; details: dose 0.03-0.1 µM
RS4-11 [4] = assay: Induction of apoptosis in human RS4-11 cells at 0.001 to 1 uM incubated for 24 hrs by Annexin-V/PI staining based flow cytometric analysis relative to MI-1061; format: functional; details: dose 0.001-1 µM
[5] = Toxicity in mouse xenografted with human RS4-11 cells assessed as signs of toxicity at 50 mg/kg, administered once a week for 3 weeks; format: organism-based; details: in vivo, 504 h
[6] = Toxicity in mouse xenografted with human RS4-11 cells assessed as weight loss at 25 mg/kg, iv administered for one week; format: organism-based; details: in vivo, 168 h, time 1 weeks
RS4-11 [7] = assay: Antitumor activity against human RS4-11 cells xenografted in mouse assessed as reduction in tumor growth at 25 mg/kg, iv administered for a week; format: functional, organism-based; details: time 1.0 weeks
KG-1 = assay: cells; details: Homo sapiens, KG-1, 96 h
SIG-M5 [8] = assay: cells; details: Homo sapiens, SIG-M5, 96 h
RS4-11 [9] = assay: Induction of apoptosis in human RS4-11 cells incubated for 24 hrs by Annexin-V/PI staining based flow cytometric analysis; format: functional, cell-based
RS4-11 [10] = assay: Potency index, ratio of MI-1061 IC50 to test compound IC50 for inhibition of cell growth in human RS4-11 cells incubated for 4 days by lactate dehydrogenase based WST-8 assay; format: functional; details: time 4 day
[11] = Toxicity in mouse xenografted with human RS4-11 cells assessed as weight loss at 50 mg/kg, administered every other day for 3 weeks; format: organism-based; details: in vivo, 504 h
MV4-11 [12] = assay: Potency index, ratio of MI-1061 IC50 to test compound IC50 for inhibition of cell growth in human MV4-11 cells incubated for 4 days by lactate dehydrogenase based WST-8 assay; format: functional; details: time 4 day
RS4-11 [13] = assay: Antitumor activity against human RS4-11 cells xenografted in mouse assessed as reduction in tumor growth at 10 mg/kg, iv administered three times a week; format: functional, organism-based; details: time 1.0 weeks
MOLM-14 [14] = assay: Potency index, ratio of MI-1061 IC50 to test compound IC50 for inhibition of cell growth in human MOLM-14 cells harbouring wild type p53 incubated for 4 days by lactate dehydrogenase based WST-8 assay; format: functional; details: time 4 day
OCI-AML-5 [15] = assay: cells; details: Homo sapiens, OCI-AML-5, 96 h
[16] = Toxicity in mouse xenografted with human RS4-11 cells assessed as signs of toxicity at 10 to 25 mg/kg, iv administered three times a week; format: organism-based; details: in vivo, 168 h, dose 10-25 mg/kg, time 1 weeks
SIG-M5 [17] = assay: Potency index, ratio of MI-1061 IC50 to test compound IC50 for inhibition of cell growth in human SIG-M5 cells harbouring wild type p53 incubated for 4 days by lactate dehydrogenase based WST-8 assay; format: functional; details: time 4 day
MOLM-14 [18] = assay: cells; details: Homo sapiens, MOLM-14, 96 h
[19] = target: T1, Protein cereblon/E3 ubiquitin-protein ligase Mdm2 (Homo sapiens); assay: PROTAC activity at CRBN/MDM2 in human MV4-11 cells assessed as upregulation of p21 mRNA expression at 0.1 to 0.3 uM incubated for 6 hrs by qRT-PCR analysis; format: cell-based; details: dose 0.1-0.3 µM
OCI-AML-5 [20] = assay: Potency index, ratio of MI-1061 IC50 to test compound IC50 for inhibition of cell growth in human OCI-AML5 cells harbouring wild type p53 incubated for 4 days by lactate dehydrogenase based WST-8 assay; format: functional; details: time 4 day
RS4-11 [21] = assay: Antitumor activity against human RS4-11 cells xenografted in mouse assessed as inhibition of tumor growth at 50 mg/kg, administered once a week for 3 weeks; format: functional, organism-based
MONO-MAC-6 = assay: cells; details: Homo sapiens, MONO-MAC-6, 96 h
[22] = Toxicity in mouse xenografted with human RS4-11 cells assessed as weight loss at 50 mg/kg, administered once a week for 3 weeks; format: organism-based; details: in vivo, 504 h
RS4-11 [23] = assay: Antitumor activity against human RS4-11 cells xenografted in mouse assessed as reduction in tumor growth at 25 mg/kg, iv administered three times a week relative to control; format: functional; design: scale not given: the % may be the effect or the level left; details: time 1 weeks
[24] = Toxicity in mouse xenografted with human RS4-11 cells assessed as weight loss at 10 to 25 mg/kg, iv administered three times a week; format: organism-based; details: in vivo, 168 h, dose 10-25 mg/kg, time 1 weeks
ML-2 [25] = assay: Potency index, ratio of MI-1061 IC50 to test compound IC50 for inhibition of cell growth in human ML-2 cells harbouring wild type p53 incubated for 4 days by lactate dehydrogenase based WST-8 assay; format: functional; details: time 4 day
[26] = Toxicity in mouse xenografted with human RS4-11 cells assessed as signs of toxicity at 25 mg/kg, iv administered for one week; format: organism-based; details: in vivo, 168 h, time 1 weeks
RS4-11 [27] = assay: cells; details: Homo sapiens, RS4-11, 96 h
RS4-11 [28] = assay: Inhibition of cell growth in human RS4-11 cells incubated for 4 days in the presence of lenalidomide by Lactate dehydrogenase based WST-8 assay; format: functional; details: time 4.0 day
[29] = target: T1, Protein cereblon/E3 ubiquitin-protein ligase Mdm2 (Homo sapiens); assay: PROTAC activity at CRBN/MDM2 in human MV4-11 cells assessed as upregulation of p53 mRNA expression at 0.1 to 0.3 uM incubated for 6 hrs by qRT-PCR analysis; format: cell-based; details: dose 0.1-0.3 µM
[30] = target: T1, Protein cereblon/E3 ubiquitin-protein ligase Mdm2 (Homo sapiens); assay: PROTAC activity at CRBN/MDM2 in human MV4-11 cells assessed as upregulation of MDM2 mRNA expression at 0.1 to 0.3 uM incubated for 6 hrs by qRT-PCR analysis; format: cell-based; details: dose 0.1-0.3 µM
[31] = Toxicity in mouse xenografted with human RS4-11 cells assessed as signs o toxicity at 50 mg/kg, administered every other day for 3 weeks; format: organism-based; details: in vivo, 504 h
RS4-11 [32] = assay: Antitumor activity against human […] cells xenografted in mouse assessed as tumor regression at 25 mg/kg, administered daily 5 days a week for 2 weeks; format: functional, organism-based
MV4-11 [33] = assay: Inhibition of cell growth in human MV4-11 cells incubated for 4 days in the presence of lenalidomide by Lactate dehydrogenase based WST-8 assay; format: functional; details: time 4.0 day
MOLM-13 [34] = assay: Potency index, ratio of MI-1061 IC50 to test compound IC50 for inhibition of cell growth in human MOLM-13 cells harbouring wild type p53 incubated for 4 days by lactate dehydrogenase based WST-8 assay; format: functional; details: time 4 day
[35] = target: T1, Protein cereblon/E3 ubiquitin-protein ligase Mdm2 (Homo sapiens); assay: PROTAC activity at CRBN/MDM2 in human MV4-11 cells assessed as upregulation of PUMA mRNA expression at 0.1 to 0.3 uM incubated for 6 hrs by qRT-PCR analysis; format: cell-based; details: dose 0.1-0.3 µM
[36] = target: T1, Protein cereblon/E3 ubiquitin-protein ligase Mdm2 (Homo sapiens); assay: PROTAC activity at CRBN/MDM2 in human MV4-11 cells assessed as upregulation of TP53 mRNA expression at 0.1 to 0.3 uM incubated for 6 hrs by qRT-PCR analysis; format: cell-based; details: dose 0.1-0.3 µM
MOLM-13 [37] = assay: cells; details: Homo sapiens, MOLM-13, 96 h

T1 sequence (Q00987 whole entry, looked up): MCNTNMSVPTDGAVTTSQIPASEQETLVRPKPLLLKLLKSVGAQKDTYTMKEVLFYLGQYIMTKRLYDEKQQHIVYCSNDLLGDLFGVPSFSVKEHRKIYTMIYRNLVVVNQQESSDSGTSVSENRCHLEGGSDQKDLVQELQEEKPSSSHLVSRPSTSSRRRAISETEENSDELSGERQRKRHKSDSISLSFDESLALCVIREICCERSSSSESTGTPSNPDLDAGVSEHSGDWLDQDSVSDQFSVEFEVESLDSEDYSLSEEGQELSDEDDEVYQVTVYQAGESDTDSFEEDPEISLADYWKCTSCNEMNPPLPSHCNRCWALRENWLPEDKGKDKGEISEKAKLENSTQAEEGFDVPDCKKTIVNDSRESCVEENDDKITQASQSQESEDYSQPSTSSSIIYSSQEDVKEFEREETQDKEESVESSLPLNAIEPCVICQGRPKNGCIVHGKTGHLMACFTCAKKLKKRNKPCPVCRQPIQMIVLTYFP
T1 sequence (Q96SW2 whole entry, looked up): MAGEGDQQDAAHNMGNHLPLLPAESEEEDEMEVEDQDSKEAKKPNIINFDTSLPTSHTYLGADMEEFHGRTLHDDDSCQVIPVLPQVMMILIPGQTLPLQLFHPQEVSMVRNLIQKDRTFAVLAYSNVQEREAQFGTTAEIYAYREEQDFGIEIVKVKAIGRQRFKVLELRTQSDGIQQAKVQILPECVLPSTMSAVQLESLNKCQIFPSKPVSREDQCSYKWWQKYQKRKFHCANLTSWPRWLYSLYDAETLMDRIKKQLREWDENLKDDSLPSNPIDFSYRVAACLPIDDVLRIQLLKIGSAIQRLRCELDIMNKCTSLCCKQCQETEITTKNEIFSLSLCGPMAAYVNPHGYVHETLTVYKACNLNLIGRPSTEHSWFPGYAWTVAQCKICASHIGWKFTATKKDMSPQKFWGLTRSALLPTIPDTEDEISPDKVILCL

## O=C1CCC(N2Cc3c(C#CCCCNC(=O)c4ccc(NC(=O)[C@@H]5NC6(CCCCC6)[C@@]6(C(=O)Nc7cc(Cl)ccc76)[C@H]5c5cccc(Cl)c5F)cc4)cccc3C2=O)C(=O)N1 (some centres undefined)
RS4-11 [1]
  Activity: Active
ML-2 [2]
  IC50: 4.4 nM
[3]
  Activity: inactive
RS4-11 [4]
  fold change (FC): >10
[5]
  Activity: Non-Toxic
[6]
  Activity: Non-Toxic
RS4-11 [7]
  Activity: Active
KG-1
  IC50: > 10000 nM
SIG-M5 [8]
  IC50: 19.8 nM
RS4-11 [9]
  Activity: Dose-Dependent Effect
RS4-11 [10]
  Ratio IC50: >10
[11]
  Activity: Non-Toxic
MV4-11 [12]
  Ratio IC50: >10
RS4-11 [13]
  Activity: Active
MOLM-14 [14]
  Ratio IC50: >10
OCI-AML-5 [15]
  IC50: 33.1 nM
[16]
  Activity: Non-Toxic
SIG-M5 [17]
  Ratio IC50: 5.3
MOLM-14 [18]
  IC50: 10.5 nM
[19]
  Activity: Active
OCI-AML-5 [20]
  Ratio IC50: >10
RS4-11 [21]
  Activity: Active
MONO-MAC-6
  IC50: > 10000 nM
[22]
  Activity: Non-Toxic
RS4-11 [23]
  Activity: 50%
[24]
  Activity: Non-Toxic
ML-2 [25]
  Ratio IC50: >10
[26]
  Activity: Non-Toxic
RS4-11 [27]
  IC50: 1.5 nM
RS4-11 [28]
  inhibition: inactive
[29]
  Activity: Active
[30]
  Activity: Active
[31]
  Activity: Non-Toxic
RS4-11 [32]
  Activity: Active
MV4-11 [33]
  inhibition: Active
MOLM-13 [34]
  Ratio IC50: >10
[35]
  Activity: Active
[36]
  Activity: inactive
MOLM-13 [37]
  IC50: 7.3 nM
